In ChEMBL document CHEMBL4007445, “Design, synthesis, and biological evaluation of imidazo[1,2-b]pyridazine derivatives as mTOR inhibitors” (Eur J Med Chem, 2017):

What was measured:
MCF7 [1] = assay: Antiproliferative activity against human MCF7 cells after 72 hrs by SRB assay; type: functional, cell-based; conditions: MCF7, 72 h
[2] = molecular target: PI3-kinase p110-delta/p85-alpha (Homo sapiens) (UniProt P27986+O00329); assay: Inhibition of human PI3K p110delta/p85alpha at 10 uM using phosphatidylinositol 4,5-bisphosphate as substrate after 30 mins by HTRF assay relative to control; type: protein-complex assay
HEK293 = assay: Antiproliferative activity against HEK293 cells after 72 hrs by SRB assay; type: cell-based; conditions: Homo sapiens, HEK293, 72 h
A-375 [3] = assay: Antiproliferative activity against human A375 cells after 72 hrs by SRB assay; type: functional, cell-based; conditions: A-375, 72 h
[4] = molecular target: PI3-kinase p110-alpha/p85-alpha (Homo sapiens) (UniProt P27986+P42336); assay: Inhibition of human PI3K p110alpha/p85alpha at 10 uM using phosphatidylinositol 4,5-bisphosphate as substrate after 30 mins by HTRF assay relative to control; type: protein-complex assay
[5] = molecular target: Phosphatidylinositol 4,5-bisphosphate 3-kinase catalytic subunit gamma isoform (Homo sapiens) (UniProt P48736); assay: Inhibition of human PI3K p120gamma at 10 uM using phosphatidylinositol 4,5-bisphosphate as substrate after 30 mins by HTRF assay relative to control
A549 [6] = assay: Antiproliferative activity against human A549 cells after 72 hrs by SRB assay; type: functional, cell-based; conditions: A549, 72 h
NCI-H460 = assay: Antiproliferative activity against human NCI-H460 cells after 72 hrs by SRB assay; type: functional, cell-based; conditions: NCI-H460, 72 h
[7] = molecular target: PI3-kinase p110-alpha/p85-alpha (Homo sapiens, UniProt P42336); assay: Inhibition of human PI3K p110alpha/p85alpha using phosphatidylinositol 4,5-bisphosphate as substrate after 30 mins by HTRF assay; type: protein-complex assay
[8] = Antiproliferative activity against human U87 cells after 72 hrs by SRB assay; type: functional, cell-based, U-87MG ATCC; conditions: U-87 MG
[9] = molecular target: PI3K p110 beta/p85 alpha (Homo sapiens) (UniProt P27986+P42338); assay: Inhibition of human PI3K p110beta/p85alpha at 10 uM using phosphatidylinositol 4,5-bisphosphate as substrate after 30 mins by HTRF assay relative to control; type: protein-complex assay
[10] = Solubility of the compound; type: physicochemical
HeLa = assay: Growth inhibition of human HeLa cells at 20 uM after 72 hrs by SRB assay relative to control; type: functional; conditions: read-out: GI
A-375 [11] = assay: Growth inhibition of human A375 cells at 20 uM after 72 hrs by SRB assay relative to control; type: functional; conditions: A-375, 72 h, read-out: GI
[12] = Growth inhibition of human U87 cells at 20 uM after 72 hrs by SRB assay relative to control; type: functional, U-87MG ATCC; conditions: U-87 MG, read-out: GI
MCF7 [13] = assay: Growth inhibition of human MCF7 cells at 20 uM after 72 hrs by SRB assay relative to control; type: functional; conditions: MCF7, 72 h, read-out: GI
A549 [14] = assay: Growth inhibition of human A549 cells at 20 uM after 72 hrs by SRB assay relative to control; type: functional; conditions: A549, 72 h, read-out: GI

Sequence of PI3K p110 beta/p85 alpha (Homo sapiens) (P27986 2-724 limits assumed): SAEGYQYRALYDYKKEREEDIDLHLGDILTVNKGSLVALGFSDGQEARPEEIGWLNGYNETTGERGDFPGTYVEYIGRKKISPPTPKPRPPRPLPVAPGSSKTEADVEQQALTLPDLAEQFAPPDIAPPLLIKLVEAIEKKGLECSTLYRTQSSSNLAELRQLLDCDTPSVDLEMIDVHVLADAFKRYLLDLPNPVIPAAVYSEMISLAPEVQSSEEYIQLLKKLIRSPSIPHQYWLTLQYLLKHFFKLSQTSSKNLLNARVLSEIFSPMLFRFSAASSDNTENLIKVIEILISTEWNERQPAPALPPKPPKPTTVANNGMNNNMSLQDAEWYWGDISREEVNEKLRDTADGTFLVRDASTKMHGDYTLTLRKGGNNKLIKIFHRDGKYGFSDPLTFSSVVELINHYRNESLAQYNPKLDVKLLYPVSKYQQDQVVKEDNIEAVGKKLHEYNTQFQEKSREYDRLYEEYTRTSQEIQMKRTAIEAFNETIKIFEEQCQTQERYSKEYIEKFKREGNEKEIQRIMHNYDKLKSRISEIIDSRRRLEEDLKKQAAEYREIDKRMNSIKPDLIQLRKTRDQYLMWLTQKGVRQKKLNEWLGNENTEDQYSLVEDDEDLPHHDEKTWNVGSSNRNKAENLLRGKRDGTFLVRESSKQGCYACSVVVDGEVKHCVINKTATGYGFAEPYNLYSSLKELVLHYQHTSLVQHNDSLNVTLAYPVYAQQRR
Sequence of PI3K p110 beta/p85 alpha (Homo sapiens) (P42338 whole entry partner): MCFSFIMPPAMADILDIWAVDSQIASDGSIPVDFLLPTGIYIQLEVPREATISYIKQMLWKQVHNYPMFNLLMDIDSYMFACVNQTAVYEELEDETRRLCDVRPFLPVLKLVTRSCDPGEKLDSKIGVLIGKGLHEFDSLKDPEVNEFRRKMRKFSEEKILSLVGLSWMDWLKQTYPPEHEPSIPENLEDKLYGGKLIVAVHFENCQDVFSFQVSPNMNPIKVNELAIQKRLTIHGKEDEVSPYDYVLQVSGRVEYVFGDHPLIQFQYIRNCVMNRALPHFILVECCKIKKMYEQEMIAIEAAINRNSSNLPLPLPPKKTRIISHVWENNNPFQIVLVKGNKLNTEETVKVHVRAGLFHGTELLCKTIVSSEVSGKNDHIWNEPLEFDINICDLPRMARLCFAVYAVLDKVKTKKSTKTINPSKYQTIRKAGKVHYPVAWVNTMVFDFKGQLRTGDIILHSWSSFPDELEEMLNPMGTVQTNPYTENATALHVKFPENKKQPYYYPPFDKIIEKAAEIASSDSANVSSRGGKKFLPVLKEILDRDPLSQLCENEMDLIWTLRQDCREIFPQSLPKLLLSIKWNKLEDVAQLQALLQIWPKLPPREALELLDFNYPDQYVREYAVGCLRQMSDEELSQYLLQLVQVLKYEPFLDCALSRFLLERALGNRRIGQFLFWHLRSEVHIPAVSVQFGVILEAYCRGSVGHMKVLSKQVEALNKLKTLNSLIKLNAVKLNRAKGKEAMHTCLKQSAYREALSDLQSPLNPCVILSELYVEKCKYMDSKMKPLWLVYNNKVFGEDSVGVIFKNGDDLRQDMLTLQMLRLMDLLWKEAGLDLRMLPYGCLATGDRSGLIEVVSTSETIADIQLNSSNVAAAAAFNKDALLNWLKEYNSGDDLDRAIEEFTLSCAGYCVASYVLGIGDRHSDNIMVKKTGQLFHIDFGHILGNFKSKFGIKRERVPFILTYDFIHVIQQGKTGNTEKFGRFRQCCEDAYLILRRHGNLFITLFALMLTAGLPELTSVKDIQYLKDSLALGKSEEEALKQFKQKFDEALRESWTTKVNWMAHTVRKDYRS
Sequence of Phosphatidylinositol 4,5-bisphosphate 3-kinase catalytic subunit gamma isoform (Homo sapiens) (P48736 whole entry, looked up, canonical isoform): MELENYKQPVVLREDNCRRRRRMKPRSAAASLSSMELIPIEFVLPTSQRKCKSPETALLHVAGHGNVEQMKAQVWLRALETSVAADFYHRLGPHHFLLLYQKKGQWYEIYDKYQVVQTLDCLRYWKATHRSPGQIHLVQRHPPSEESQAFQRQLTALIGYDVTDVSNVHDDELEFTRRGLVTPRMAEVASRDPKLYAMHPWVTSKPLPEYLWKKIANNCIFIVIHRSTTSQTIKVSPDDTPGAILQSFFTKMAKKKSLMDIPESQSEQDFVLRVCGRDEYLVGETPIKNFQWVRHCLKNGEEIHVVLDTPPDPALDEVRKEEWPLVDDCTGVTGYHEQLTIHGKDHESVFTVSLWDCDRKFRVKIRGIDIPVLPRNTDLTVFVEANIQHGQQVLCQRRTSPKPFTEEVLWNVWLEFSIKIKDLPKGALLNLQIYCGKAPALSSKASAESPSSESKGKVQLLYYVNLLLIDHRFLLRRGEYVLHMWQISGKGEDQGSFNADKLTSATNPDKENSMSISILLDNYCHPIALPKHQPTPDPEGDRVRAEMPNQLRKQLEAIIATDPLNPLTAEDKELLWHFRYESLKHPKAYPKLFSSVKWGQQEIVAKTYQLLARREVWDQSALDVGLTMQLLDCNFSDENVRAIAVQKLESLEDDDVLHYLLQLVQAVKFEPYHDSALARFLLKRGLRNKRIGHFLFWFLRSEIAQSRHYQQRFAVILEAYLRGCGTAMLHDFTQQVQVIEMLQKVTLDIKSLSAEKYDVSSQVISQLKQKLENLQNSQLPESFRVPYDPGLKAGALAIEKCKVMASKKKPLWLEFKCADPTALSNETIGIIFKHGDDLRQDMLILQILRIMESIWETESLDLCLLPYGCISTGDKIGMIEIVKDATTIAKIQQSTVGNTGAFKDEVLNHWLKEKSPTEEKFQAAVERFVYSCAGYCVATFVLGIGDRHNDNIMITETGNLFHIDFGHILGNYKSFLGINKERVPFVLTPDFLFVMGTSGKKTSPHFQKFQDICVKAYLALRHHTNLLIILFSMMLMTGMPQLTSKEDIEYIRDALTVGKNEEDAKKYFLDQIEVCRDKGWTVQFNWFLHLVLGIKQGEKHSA
Sequence of PI3-kinase p110-alpha/p85-alpha (P27986 whole entry): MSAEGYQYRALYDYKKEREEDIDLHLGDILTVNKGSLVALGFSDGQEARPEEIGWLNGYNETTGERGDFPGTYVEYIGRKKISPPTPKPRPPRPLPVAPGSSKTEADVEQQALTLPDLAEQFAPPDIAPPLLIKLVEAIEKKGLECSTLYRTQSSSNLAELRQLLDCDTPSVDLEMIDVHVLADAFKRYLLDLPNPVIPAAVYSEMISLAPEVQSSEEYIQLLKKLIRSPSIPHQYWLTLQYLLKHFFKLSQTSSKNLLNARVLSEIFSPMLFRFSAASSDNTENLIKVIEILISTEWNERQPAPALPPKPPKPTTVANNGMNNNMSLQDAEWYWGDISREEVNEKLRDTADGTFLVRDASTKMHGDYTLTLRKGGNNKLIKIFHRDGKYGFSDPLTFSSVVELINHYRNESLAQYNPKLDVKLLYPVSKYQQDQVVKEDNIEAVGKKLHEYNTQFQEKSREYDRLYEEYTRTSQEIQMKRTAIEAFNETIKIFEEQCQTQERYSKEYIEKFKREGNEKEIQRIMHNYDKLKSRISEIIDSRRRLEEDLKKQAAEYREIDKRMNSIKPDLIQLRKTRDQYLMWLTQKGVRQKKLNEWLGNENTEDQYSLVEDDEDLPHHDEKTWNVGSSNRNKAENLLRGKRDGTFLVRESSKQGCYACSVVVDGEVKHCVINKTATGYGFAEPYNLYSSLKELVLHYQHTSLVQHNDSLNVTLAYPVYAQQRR
Sequence of PI3-kinase p110-alpha/p85-alpha (P42336 whole entry): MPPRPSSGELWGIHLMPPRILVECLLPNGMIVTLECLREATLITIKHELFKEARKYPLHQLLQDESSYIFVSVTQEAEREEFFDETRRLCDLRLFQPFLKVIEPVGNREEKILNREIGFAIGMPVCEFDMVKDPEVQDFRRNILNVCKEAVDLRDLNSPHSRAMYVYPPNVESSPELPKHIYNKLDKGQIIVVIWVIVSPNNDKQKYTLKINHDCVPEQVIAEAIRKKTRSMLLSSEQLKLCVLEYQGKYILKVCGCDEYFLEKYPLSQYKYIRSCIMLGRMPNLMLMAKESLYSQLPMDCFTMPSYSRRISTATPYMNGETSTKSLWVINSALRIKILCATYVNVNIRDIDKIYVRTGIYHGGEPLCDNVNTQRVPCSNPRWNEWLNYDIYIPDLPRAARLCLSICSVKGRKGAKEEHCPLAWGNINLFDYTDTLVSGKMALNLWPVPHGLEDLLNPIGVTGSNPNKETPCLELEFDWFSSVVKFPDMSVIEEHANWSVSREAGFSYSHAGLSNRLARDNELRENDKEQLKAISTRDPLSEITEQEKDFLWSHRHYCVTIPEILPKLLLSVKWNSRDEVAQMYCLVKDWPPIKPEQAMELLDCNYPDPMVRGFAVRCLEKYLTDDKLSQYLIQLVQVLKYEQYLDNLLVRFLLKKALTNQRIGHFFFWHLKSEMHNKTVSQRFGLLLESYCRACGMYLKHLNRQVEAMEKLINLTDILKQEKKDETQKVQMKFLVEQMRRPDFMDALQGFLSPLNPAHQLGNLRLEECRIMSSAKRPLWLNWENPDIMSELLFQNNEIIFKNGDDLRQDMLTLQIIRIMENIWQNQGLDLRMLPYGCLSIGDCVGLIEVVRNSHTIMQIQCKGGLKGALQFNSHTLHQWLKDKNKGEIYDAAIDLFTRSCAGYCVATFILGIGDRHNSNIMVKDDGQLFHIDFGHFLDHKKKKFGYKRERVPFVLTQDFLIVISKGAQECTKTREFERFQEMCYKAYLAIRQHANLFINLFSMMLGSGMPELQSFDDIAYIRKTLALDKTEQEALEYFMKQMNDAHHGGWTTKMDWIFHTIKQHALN

Structure (SMILES) | IC50 (MCF7 [1]) [µM] | inhibition [2] [%] | IC50 (HEK293) [µM] | IC50 (A-375 [3]) [µM] | inhibition [4] [%] | inhibition [5] [%] | IC50 (A549 [6]) [µM] | IC50 (NCI-H460) [µM] | IC50 [7] [µM] | IC50 [8] [µM] | inhibition [9] [%] | solubility [10] | inhibition of growth at 20 µM (HeLa) [%] | inhibition of growth at 20 µM (A-375 [11]) [%] | inhibition of growth at 20 µM [12] [%] | inhibition of growth at 20 µM (MCF7 [13]) [%] | inhibition of growth at 20 µM (A549 [14]) [%]
COc1ccc(-c2ccc3c(N4CCOC[C@@H]4C)nc(N4CCOC[C@@H]4C)nc3n2)cc1CO [AZD-8055] | 0.14 | 59 | 1.4 | 0.12 | 70 | 29 | 0.05 | 0.01 | 5.58 | 0.19 | 12 | – | – | – | – | – | –
CCc1cnc2c(N3CCOC[C@@H]3C)cc(-c3ccc(NC(=O)Nc4cccnc4)cc3)nn12 | 6.6 | – | 7.3 | 4.2 | – | – | 5.3 | 3.7 | – | 8.4 | – | Insoluble | – | – | – | – | –
Cc1cnc2c(N3CCOCC3)cc(-c3ccc(NC(=O)Nc4ccncc4)cc3)nn12 | > 40 | – | > 40 | > 40 | – | – | > 40 | > 40 | – | > 40 | – | Insoluble | – | – | – | – | –
COC(=O)N1CCC(c2cnc3c(N4CCOC[C@@H]4C)cc(-c4cccc(CO)c4)nn23)CC1 | – | – | – | – | – | – | – | – | – | – | – | – | 0.2 | 16.3 | -5.2 | 34.6 | 40.4
CN1CCN(c2ccc(NC(=O)Nc3ccc(-c4cc(N5CCOCC5)c5nccn5n4)cc3)cc2)CC1 | 4.3 | – | 7.8 | 1.6 | – | – | 3.3 | 3 | – | 4.9 | – | – | – | – | – | – | –
C[C@H]1COCCN1c1cc(-c2cnc(N)nc2)nn2c(C3CCN(C(=O)c4cccnc4)CC3)cnc12 | – | – | – | – | – | – | – | – | – | – | – | – | 9.4 | 17.8 | 11.7 | 32 | 42.1
COC(=O)N1CCC(c2cnc3c(N4CCOC[C@@H]4C)cc(-c4ccc5[nH]ccc5c4)nn23)CC1 | – | – | – | – | – | – | – | – | – | – | – | – | 56 | 33.8 | 26.4 | 43.2 | 16
C[C@H]1COCCN1c1cc(-c2ccc3[nH]ccc3c2)nn2c(C3CCN(C(=O)c4cccnc4)CC3)cnc12 | 9.9 | – | – | 4.1 | – | – | 11.6 | – | – | 10 | – | – | 34.2 | 96.7 | 58.3 | 75.6 | 57
CN1CCN(c2ccc(NC(=O)Nc3ccc(-c4cc(N5CC6CCC(C5)O6)c5nccn5n4)cc3)cc2)CC1 | 2.9 | – | 12.1 | 1.8 | – | – | 3.1 | 2.9 | – | 4.3 | – | – | – | – | – | – | –
O=C(Nc1ccc(-c2cc(N3CCOCC3)c3nccn3n2)cc1)Nc1cccnc1 | 17.7 | – | 1.4 | 15.7 | – | – | 0.22 | 1 | – | 20 | – | – | – | – | – | – | –
O=C(Nc1ccncc1)Nc1ccc(-c2cc(N3CC4CCC(C3)O4)c3nccn3n2)cc1 | 6.3 | – | 3.4 | 10.9 | – | – | 2.3 | 2.2 | – | 11.7 | – | – | – | – | – | – | –
C[C@H]1COCCN1c1cc(-c2cnc(N)nc2)nn2c(C3CCN(S(C)(=O)=O)CC3)cnc12 | – | – | – | – | – | – | – | – | – | – | – | – | 4.4 | 17.5 | 1.5 | 24.3 | 39.5
Cc1cnc2c(N3CCOC[C@@H]3C)cc(-c3ccc(NC(=O)Nc4ccncc4)cc3)nn12 | > 40 | – | > 40 | 2.3 | – | – | 2.1 | > 40 | – | > 40 | – | Insoluble | – | – | – | – | –
COc1ccc(NC(=O)Nc2ccc(-c3cc(N4CCOC[C@@H]4C)c4nccn4n3)cc2)cc1 | 5.7 | – | 10.5 | 7.7 | – | – | 2.7 | 4.2 | – | 7.9 | – | – | – | – | – | – | –
CCc1cnc2c(N3CCOC[C@@H]3C)cc(-c3ccc(NC(=O)Nc4ccncc4)cc3)nn12 | 4.7 | – | 7.5 | 4.1 | – | – | 5.9 | 2.8 | – | 5.1 | – | Insoluble | – | – | – | – | –
COc1ccc(-c2cc(N3CCOC[C@@H]3C)c3ncc(C4CCN(C(=O)c5cccnc5)CC4)n3n2)cc1CO | – | – | – | – | – | – | – | – | – | – | – | – | 17.8 | 19.6 | 4.3 | 42.1 | 46.8

Structure (SMILES) | IC50 (MCF7 [1]) [µM] | inhibition [2] [%] | IC50 (HEK293) [µM] | IC50 (A-375 [3]) [µM] | inhibition [4] [%] | inhibition [5] [%] | IC50 (A549 [6]) [µM] | IC50 (NCI-H460) [µM] | IC50 [7] [µM] | IC50 [8] [µM] | inhibition [9] [%] | solubility [10] | inhibition of growth at 20 µM (HeLa) [%] | inhibition of growth at 20 µM (A-375 [11]) [%] | inhibition of growth at 20 µM [12] [%] | inhibition of growth at 20 µM (MCF7 [13]) [%] | inhibition of growth at 20 µM (A549 [14]) [%]
COc1ccc(-c2cc(N3CCOC[C@@H]3C)c3ncc(C4CCN(Cc5cccnc5)CC4)n3n2)cc1CO | – | – | – | – | – | – | – | – | – | – | – | – | 50.3 | 15.2 | 11.7 | 37.9 | 65
Cc1cnc2c(N3CCOCC3)cc(-c3ccc(NC(=O)Nc4cccnc4)cc3)nn12 | 16.3 | – | 11.5 | 6.4 | – | – | 5 | 6.8 | – | 12.9 | – | Insoluble | – | – | – | – | –
C[C@H]1COCCN1c1cc(-c2cnc(N)nc2)nn2c(C3CCN(Cc4cccnc4)CC3)cnc12 | – | – | – | – | – | – | – | – | – | – | – | – | 30.5 | 14.7 | 10.8 | 34.2 | 44.8
OCc1cccc(-c2cc(N3CCOCC3)c3ncc(C4CCN(Cc5cccnc5)CC4)n3n2)c1 | – | – | – | – | – | – | – | – | – | – | – | – | 19.4 | 12.5 | 7.8 | 46.2 | 30.2
c1cncc(CN2CCC(c3cnc4c(N5CCOCC5)cc(-c5ccc6[nH]ccc6c5)nn34)CC2)c1 | 13.5 | – | – | 8 | – | – | 7.1 | – | – | 5.1 | – | – | 68.6 | 95.8 | 84.2 | 94.6 | 96.5
Oc1cccc(-c2nc(N3CCOCC3)c3oc4ncccc4c3n2)c1 | – | 96 | – | – | 101 | 98 | – | – | – | – | 99 | – | – | – | – | – | –
C[C@H]1COCCN1c1cc(-c2ccc3[nH]ccc3c2)nn2c(C3CCN(S(C)(=O)=O)CC3)cnc12 | – | – | – | – | – | – | – | – | – | – | – | – | 47.4 | 29.4 | 45.4 | 55.3 | 34
Cc1cnc2c(N3CCOC[C@@H]3C)cc(-c3ccc(NC(=O)Nc4cccnc4)cc3)nn12 | 7.8 | – | 8.2 | 3.3 | – | – | 1.2 | 7.3 | – | 10.8 | – | Insoluble | – | – | – | – | –
CCc1cnc2c(N3CCOCC3)cc(-c3ccc(NC(=O)Nc4cccnc4)cc3)nn12 | > 40 | – | > 40 | > 40 | – | – | 1.9 | > 40 | – | > 40 | – | Insoluble | – | – | – | – | –
O=C(Nc1ccncc1)Nc1ccc(-c2cc(N3CCOCC3)c3nccn3n2)cc1 | 21.9 | – | 12.4 | 7.2 | – | – | 2.8 | 20.7 | – | 11.1 | – | – | – | – | – | – | –
C[C@H]1COCCN1c1cc(-c2ccc(NC(=O)Nc3ccc(N4CCN(C)CC4)cc3)cc2)nn2ccnc12 | 3.5 | – | 8.4 | 2 | – | – | 1.5 | 2 | – | 2.6 | – | – | – | – | – | – | –
COc1ccc(-c2cc(N3CCOC[C@@H]3C)c3ncc(C4CCN(S(C)(=O)=O)CC4)n3n2)cc1CO | – | – | – | – | – | – | – | – | – | – | – | – | 12.7 | 21.2 | 4 | 45.1 | 49.6
O=C(Nc1ccc(-c2cc(N3CC4CCC(C3)O4)c3nccn3n2)cc1)Nc1cccnc1 | 37.9 | – | 9 | 4.7 | – | – | 1.1 | 0.65 | – | 5.8 | – | – | – | – | – | – | –
C[C@H]1COCCN1c1cc(-c2ccc3[nH]ccc3c2)nn2c(C3CCN(Cc4cccnc4)CC3)cnc12 | 6.3 | – | – | 3.4 | – | – | 7.7 | – | – | 7.9 | – | – | 73.6 | 96.7 | 84.4 | 96.5 | 84
C[C@H]1COCCN1c1cc(-c2cccc(CO)c2)nn2c(C3CCN(S(C)(=O)=O)CC3)cnc12 | – | – | – | – | – | – | – | – | – | – | – | – | -2.3 | 11.6 | 4.5 | 36.1 | 48.1
